This series relates to Liver microsomes. Briefly: Metabolic stability in human liver microsomes assessed as GSH adduct formation at 100 uM after 90 mins by HPLC-MS analysis. The following applies: 1.5 h. (Microsomes from liver hold many membrane-bound enzymes, among them those of drug oxidation.)

Consider 51 molecules from ChEMBL document CHEMBL2069259, “Preclinical strategy to reduce clinical hepatotoxicity using in vitro bioactivation data for >200 compounds” (Chem Res Toxicol, 2012).

Turning to `COc1ccc([C@@H]2Sc3ccccc3N(CCN(C)C)C(=O)[C@@H]2OC(C)=O)cc1` [DILTIAZEM], the Stability entry was “Stable”.
To `CC[C@H]1OC(=O)[C@H](C)[C@@H](O[C@H]2C[C@@](C)(OC)[C@@H](O)[C@H](C)O2)[C@H](C)[C@@H](O[C@@H]2O[C@H](C)C[C@H](N(C)C)[C@H]2O)[C@](C)(O)C[C@@H](C)CN(C)[C@H](C)[C@@H](O)[C@]1(C)O` [AZITHROMYCIN] belongs “Stable”.
To `NCCC(O)(P(=O)(O)O)P(=O)(O)O` [PAMIDRONIC ACID] belongs “Stable”; to `CCCNC(=O)NS(=O)(=O)c1ccc(Cl)cc1` [CHLORPROPAMIDE], “Stable”; to `CC(CCc1ccccc1)NCC(O)c1ccc(O)c(C(N)=O)c1` (stereo unspecified) [LABETALOL], “Stable”.
With `CC(C)(N)Cc1ccccc1` [PHENTERMINE], the Stability result is given as “Stable”.
Take `CC/C(=C(\c1ccccc1)c1ccc(OCCN(C)C)cc1)c1ccccc1` [TAMOXIFEN]: the Stability entry was “Stable”.
In the case of `C[C@H](N)[C@H](O)c1cccc(O)c1` [METARAMINOL] it was “Stable”; in that of `Nc1nnc(-c2cccc(Cl)c2Cl)c(N)n1` [LAMOTRIGINE], “Stable”.
In the case of `Cc1cn([C@H]2C[C@H](N=[N+]=[N-])[C@@H](CO)O2)c(=O)[nH]c1=O` [ZIDOVUDINE], the Stability result was “Stable”.
In the case of `CC1(C)NC(=O)N(c2ccc([N+](=O)[O-])c(C(F)(F)F)c2)C1=O` [NILUTAMIDE] it was “Stable”.
For `CCOC(=O)C1(c2ccccc2)CCN(C)CC1` [MEPERIDINE], the Stability result is “Stable”.
In the case of `COc1ccccc1OCC(O)CO` (stereo unspecified) [GUAIFENESIN] it was “Stable”.
Take `COc1ccc2c3c1O[C@H]1C(=O)CC[C@H]4[C@@H](C2)N(C)CC[C@]314` [HYDROCODONE]: the Stability entry is “Stable”.
In the case of `CC(C)Cc1ccc(C(C)C(=O)O)cc1` (stereo unspecified) [IBUPROFEN] it was “Stable”.
For the molecule `CN(Cc1cnc2nc(N)nc(N)c2n1)c1ccc(C(=O)N[C@@H](CCC(=O)O)C(=O)O)cc1` [METHOTREXATE], the Stability result is on record as “Stable”.
For `CCC1(c2ccccc2)C(=O)NC(=O)NC1=O` [PHENOBARBITAL], the Stability result was “Stable”.
Turning to `CN1CC[C@]23c4c5ccc(O)c4O[C@H]2C(=O)CC[C@@]3(O)[C@H]1C5` [OXYMORPHONE], the Stability result is recorded as “Stable”.
In the case of `Cc1cccc(Nc2ccncc2S(=O)(=O)NC(=O)NC(C)C)c1` [TORSEMIDE] it was “Stable”.
To `CCCCC[C@H](O)/C=C/[C@H]1[C@H](O)CC(=O)[C@@H]1CCCCCCC(=O)O` [ALPROSTADIL] belongs “Stable”; to `CCc1nn(CCCN2CCN(c3cccc(Cl)c3)CC2)c(=O)n1CCOc1ccccc1` [NEFAZODONE], “Stable”.
To `C[C@H]1C[C@H]2[C@@H]3CCC4=CC(=O)C=C[C@]4(C)[C@@]3(Cl)[C@@H](O)C[C@]2(C)[C@@]1(O)C(=O)CO` [BECLOMETHASONE] belongs “Stable”; to `CC(C)(C)NC(=O)[C@H]1CC[C@H]2[C@@H]3CC[C@H]4NC(=O)C=C[C@]4(C)[C@H]3CC[C@]12C` [FINASTERIDE], “Stable”; to `CCN1CCC[C@H]1CNC(=O)c1c(OC)ccc(Br)c1OC` [REMOXIPRIDE], “Stable”.
Regarding `NC(=O)c1cnccn1` [PYRAZINAMIDE], the Stability result was “Stable”.
In the case of `COc1cc2nc(N3CCN(C(=O)C4CCCO4)CC3)nc(N)c2cc1OC` (stereo unspecified) [TERAZOSIN] it was “Stable”; in that of `CCN1CCN(C(=O)N[C@@H](C(=O)N[C@@H]2C(=O)N3C(C(=O)O)=C(CSc4nnnn4C)CS[C@H]23)c2ccc(O)cc2)C(=O)C1=O` [CEFOPERAZONE], “Stable”.
To `OCCOCCN1CCN(C(c2ccccc2)c2ccc(Cl)cc2)CC1` (stereo unspecified) [HYDROXYZINE] belongs “Stable”; to `CN(C)CCCN1c2ccccc2Sc2ccc(Cl)cc21` [CHLORPROMAZINE], “Stable”; to `CC[C@H]1OC(=O)[C@H](C)[C@@H](O[C@H]2C[C@@](C)(OC)[C@@H](O)[C@H](C)O2)[C@H](C)[C@@H](O[C@@H]2O[C@H](C)C[C@H](N(C)C)[C@H]2O)[C@](C)(O)C[C@@H](C)C(=O)[C@H](C)[C@@H](O)[C@]1(C)O` [ERYTHROMYCIN], “Stable”.
Consider `CC(C)(O/N=C(\C(=O)N[C@@H]1C(=O)N2C(C(=O)[O-])=C(C[n+]3ccccc3)CS[C@H]12)c1csc(N)n1)C(=O)O` [CEFTAZIDIME], for which the Stability entry is recorded as “Stable”.
In the case of `CCCC1O[C@@H]2C[C@H]3[C@@H]4CCC5=CC(=O)C=C[C@]5(C)[C@H]4[C@@H](O)C[C@]3(C)[C@]2(C(=O)CO)O1` (stereo partly specified) [BUDESONIDE] it was “Stable”; in that of `O=C(O)c1cc(=O)c2c(OCC(O)COc3cccc4oc(C(=O)O)cc(=O)c34)cccc2o1` [CROMOLYN], “Stable”; in that of `C[C@]12C=CC(=O)C=C1CC[C@H]1[C@@H]3C[C@@H](O)[C@](O)(C(=O)CO)[C@@]3(C)C[C@H](O)[C@@]12F` [TRIAMCINOLONE], “Stable”.
Regarding `COc1cc(N)c(Cl)cc1C(=O)NC1CCN(CCCOc2ccc(F)cc2)CC1OC` (stereo unspecified) [CISAPRIDE], the Stability result is recorded as “Stable”.
With `C[C@@H]1C[C@H]2[C@@H]3CCC4=CC(=O)C=C[C@]4(C)[C@@]3(F)[C@@H](O)C[C@]2(C)[C@@]1(O)C(=O)CO` [DEXAMETHASONE], the Stability entry is given as “Stable”.
As for `CCN1CCCC1CNC(=O)c1cc(S(N)(=O)=O)ccc1OC` (stereo unspecified) [SULPIRIDE], the Stability result was “Stable”.
As for `O=c1[nH]c(=O)n([C@H]2C[C@H](O)[C@@H](CO)O2)cc1F` [FLOXURIDINE], the Stability result is listed as “Stable”.
Regarding `C[C@H]1O[C@@H](O[C@H]2[C@@H](O)C[C@H](O[C@H]3[C@@H](O)C[C@H](O[C@H]4CC[C@@]5(C)[C@H](CC[C@@H]6[C@@H]5C[C@@H](O)[C@]5(C)[C@@H](C7=CC(=O)OC7)CC[C@]65O)C4)O[C@@H]3C)O[C@@H]2C)C[C@H](O)[C@@H]1O` [DIGOXIN], the Stability entry is listed as “Stable”.
For `CC(C)NCC(O)c1ccc(NS(C)(=O)=O)cc1` (stereo unspecified) [SOTALOL], the Stability result is reported as “Stable”.
In the case of `O=c1[nH]cnc2c1ncn2[C@H]1CC[C@@H](CO)O1` [DIDANOSINE] it was “Stable”; in that of `Nc1cc(N2CCCCC2)nc(N)[n+]1[O-]` [MINOXIDIL], “Unstable”; in that of GENTAMICIN, “Stable”.
With `O=C1CN(/N=C/c2ccc(-c3ccc([N+](=O)[O-])cc3)o2)C(O)=N1` [DANTROLENE], the Stability result is listed as “Stable”.
In the case of `CCN(CC)CCCC(C)Nc1ccnc2cc(Cl)ccc12` (stereo unspecified) [CHLOROQUINE] it was “Stable”.
To `CC(O)(P(=O)(O)O)P(=O)(O)O` [ETIDRONIC ACID] belongs “Stable”.
As for `Oc1ncnc2[nH]ncc12` [ALLOPURINOL], the Stability entry is “Stable”.
In the case of `C[C@]12CC[C@H]3[C@@H](CCC4=CC(=O)CC[C@@]43C)[C@@H]1CC[C@@H]2O` [TESTOSTERONE], the Stability entry is listed as “Stable”.
To `NC(=O)C[S+]([O-])C(c1ccccc1)c1ccccc1` (stereo unspecified) [MODAFINIL] belongs “Stable”; to `O=P(O)(O)C(O)(Cc1cccnc1)P(=O)(O)O` [RISEDRONIC ACID], “Stable”; to `Cn1c(=O)c2c(ncn2C)n(C)c1=O` [CAFFEINE], “Stable”.
